Laboratory results: patent US8435762B2, “Chimeric ligand-gated ion channels and methods of use thereof” (Howard Hughes Medical Institute, priority 2008, dated 2013)
“Also recorded” adds a separate entry of the source. Read-outs that look alike come from different tables or passages of the source.

What was measured:
α7-5HT3 Q79G L141S [1] = target: T1, α7-5HT3 Q79G L141S (Homo sapiens, UniProt P36544, L141S/M226I/Q79G/T225I); experiment: fluorescence membrane potential (MP) assay, HEK 293 cells; type: cell-based, human/mouse; details: IPD 5HT3, value (s.e.m.)
T1 construct: expressed in transfected cells

α7-5HT3 Q79G L141S [2] = target: T1, α7-5HT3 Q79G L141S; experiment: whole cell voltage clamp recordings (Iss, Ipeak); type: cell-based, human/mouse; details: for EC50: α7 Q79G L141S, IPD 5HT3
α7-5HT3 Q79G [3] = target: T2, α7-5HT3 Q79G (Homo sapiens, UniProt P36544, M226I/Q79G/T225I); experiment: whole cell voltage clamp recordings (Iss, Ipeak); type: cell-based, human/mouse
T2 construct: expressed in transfected cells; host or cells: HEK 293 cells (ATCC CRL-1573)

[4] = target: T3, α7-5HT3 wt chimeric receptor (Homo sapiens, UniProt P36544, M226I/T225I); experiment: fluorescence membrane potential (MP) assay, HEK 293 cells; type: cell-based, human/mouse; details: dose response curves, MP assay
T3 construct: expressed in transfected cells; host or cells: HEK 293 cells

α7-5HT3 Q79G [5] = target: T2, α7-5HT3 Q79G; experiment: as above; type: cell-based, human/mouse
α7-GlyR Q79G = target: T4, α7-GlyR Q79G (Homo sapiens, UniProt P36544, Q79G); experiment: whole cell voltage clamp recordings (Iss, Ipeak); type: cell-based; details: IPD GlyR
T4 construct: expressed in transfected cells; host or cells: HEK 293 cells

α7-5HT3 Q79G Q139G [6] = target: T5, α7-5HT3 Q79G Q139G (Homo sapiens, UniProt P36544, M226I/Q139G/Q79G/T225I); experiment: whole cell voltage clamp recordings (Iss, Ipeak); type: cell-based, human/mouse
T5 construct: expressed in transfected cells

α7-5HT3 Q79G Q139M = target: T6, α7-5HT3 Q79G Q139M (Homo sapiens, UniProt P36544, M226I/Q139M/Q79G/T225I); experiment: fluorescence membrane potential (MP) assay, HEK 293 cells; type: cell-based, human/mouse
T6 construct: expressed in transfected cells

α7-5HT3 Q79G Q139G [7] = target: T5, α7-5HT3 Q79G Q139G; experiment: as above; type: cell-based, human/mouse; details: IPD 5HT3
α7-5HT3 L141F [8] = target: T7, α7-5HT3 L141F (Homo sapiens, UniProt P36544, L141F/M226I/T225I); experiment: as above; type: cell-based, human/mouse
T7 construct: expressed in transfected cells; host or cells: HEK 293 cells (ATCC CRL-1573)

α7-GlyR L141F Y115F = target: T8, α7-GlyR L141F Y115F (Homo sapiens, UniProt P36544, L141F/Y115F); experiment: whole cell voltage clamp recordings (Iss, Ipeak); type: cell-based; details: IPD GlyR
T8 construct: expressed in transfected cells; layer 2/3 cortical neurons (A20)

[9] = target: T9, α7-5HT3 HC L141F (R425Q R429D R433A) (Homo sapiens, UniProt P36544, L141F/M226I/T225I); experiment: whole cell voltage clamp recordings (Iss, Ipeak); type: cell-based, human/mouse
T9 construct: expressed in transfected cells; host or cells: HEK 293 cells (A14); mouse layer 2/3 cortical neurons (A19)

[10] = target: T10, α7-GlyR L141F in cortical neurons (AAV, synapsin promoter) (Homo sapiens, UniProt P36544, L141F); experiment: excitability of AAV-transduced cortical neurons; type: cell-based; details: 10 μM; current injection up to 500 pA
T10 construct: expressed in transfected cells; host or cells: HEK 293 cells (A15); cortical neurons transduced with AAV, synapsin promoter (A22)
Procedure: (§1) FIG. 9. Synthetic ligand-induced silencing of a cortical neuron transduced by viral gene delivery α7-GlyR L141F mutant chimeric ligand-gated ion channels. Cortical neurons were transduced with adeno-associated virus (AAV) encoding the α7-GlyR L141F mutant chimeric ligand-gated ion channel under the control of the neuron-specific synapsin promoter. A. Excitability of a transfected cortical neuron before, during, and after administration of compound 89S (10 μM). […] The neuron fires normally with <100 pA injected current before and after the compound administration. B. Excitability of a non-transduced neuron is shown for comparison. Non-transduced neurons are not affected by administration of compound 89S, even at a higher concentration (30 μM).
(§2) The synapsin promoter, which restricts gene expression to neuronal cell types, was used to drive expression of α7-GlyR L141F in an adeno-associated virus (AAV) gene delivery vector.

non-transduced neurons = experiment: excitability of non-transduced cortical neurons; type: cell-based; details: even at 30 μM
Procedure: as §1, §2

α7-GABA C L141F = target: T11, α7-GABA C L141F (Homo sapiens, UniProt P36544, L141F); experiment: whole cell voltage clamp recordings (Iss, Ipeak); type: cell-based; details: IPD GABAC
T11 construct: expressed in transfected cells; host or cells: HEK 293 cells

[11] = target: T12, α7-5HT3 HC L141F expressed in layer ⅔ cortical neurons (Homo sapiens, UniProt P36544, L141F/M226I/T225I); experiment: cell attached recording of firing in layer ⅔ cortical neurons; type: cell-based, mouse; details: 3 μM
T12 construct: expressed in transfected cells; host or cells: HEK 293 cells (A14); mouse layer 2/3 cortical neurons (A19)
Description: FIG. 7. High conductance chimeric cationic ligand-gated ion channel activates layer ⅔ cortical neurons. A. Current trace from voltage clamp recordings in HEK 293 cells transfected with high conductance (HC) α7-5HT3 L141F receptors showing sustained response of the receptor to compound 89S. B. Cell attached extracellular recording of action currents from mouse layer ⅔ cortical neurons transfected with HC α7-5HT3 L141F. In addition to the mutation in the ligand binding domain (e.g., L141F), these receptors contain high conductance inducing mutations in the α7-5HT3 sequence: R425Q R429D R433A in SEQ ID NO: 1.
To develop a neuron activating cation channel, we further modified the α7-5HT3 channel with three previously described mutations that were reported to provide a 100-fold increase in conductance: R425Q R429D R433A.

α7-5HT3 L141F [12] = target: T7, α7-5HT3 L141F; experiment: whole cell voltage clamp recordings (Iss, Ipeak); type: cell-based, human/mouse
[13] = target: T13, α7-GlyR L141F Y115F expressed in layer ⅔ cortical neurons (Homo sapiens, UniProt P36544, L141F/Y115F); experiment: rheobase of layer ⅔ cortical neurons; type: cell-based
T13 construct: expressed in transfected cells; layer 2/3 cortical neurons (A20)
Description: (§3) FIG. 8. Chimeric α7-GlyR ligand-gated ion channel conducts chloride and greatly reduces excitability of cortical neurons in the presence of the cognate ligand. A. Current trace from voltage clamp recordings in transfected HEK 293 cells showing sustained responses of α7-GlyR and α7-GABA C mutant chimeric receptors to activation by synthetic ligands of the invention. Black line indicates time course of ligand application. […] C. Rheobase, which is the amount of current required to elicit an action potential, is not affected by expression of α7-GlyR L141F Y115F (labeled as condition: PRE). However, rheobase increases 10-fold in the presence of 10 μM compound 89S. There is no change in rheobase in untransfected neurons, even in the presence of 30 μM compound 89S. This reduction of excitability in α7-GlyR L141F Y115F expressing neurons is reversed after washout of the synthetic ligand (labeled as condition: WASH).
(§4) This was measured by the amount of current required to evoke and action potential, also termed rheobase (FIG. 8C). We found no difference in the rheobase of α7-GlyR L141F Y115F expressing neurons and untransfected cells.

untransfected neurons = experiment: rheobase of untransfected cortical neurons; type: cell-based; details: even at 30 μM
Description: as §3, §4

α7-GlyR L141F = target: T14, α7-GlyR L141F (Homo sapiens, UniProt P36544, L141F); experiment: whole cell voltage clamp recordings (Iss, Ipeak); type: cell-based; details: IPD GlyR
T14 construct: expressed in transfected cells; host or cells: HEK 293 cells (A15); cortical neurons transduced with AAV, synapsin promoter (A22)

[14] = peak current, read-out: EC50-Ipeak
[15] = steady state current, read-out: EC50-Iss
[16] = peak current, IPD 5HT3, read-out: EC50-Ipeak
[17] = steady state current, IPD 5HT3, read-out: EC50-Iss

T7 sequence (P36544 with tags, fused parts or gaps L141F/T225I/M226I): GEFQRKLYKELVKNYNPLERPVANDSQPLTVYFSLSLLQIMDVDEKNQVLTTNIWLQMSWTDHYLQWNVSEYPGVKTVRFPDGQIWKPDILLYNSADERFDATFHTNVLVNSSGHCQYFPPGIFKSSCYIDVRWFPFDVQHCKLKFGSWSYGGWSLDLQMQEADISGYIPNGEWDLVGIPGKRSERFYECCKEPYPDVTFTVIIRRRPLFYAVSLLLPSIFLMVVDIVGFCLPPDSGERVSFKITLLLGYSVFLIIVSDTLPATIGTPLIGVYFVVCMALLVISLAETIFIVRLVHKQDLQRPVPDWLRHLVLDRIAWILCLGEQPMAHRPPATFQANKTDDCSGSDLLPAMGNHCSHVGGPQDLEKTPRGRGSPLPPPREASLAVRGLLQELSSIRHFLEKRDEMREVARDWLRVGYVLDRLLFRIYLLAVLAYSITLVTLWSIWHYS
T2 sequence (P36544 with tags, fused parts or gaps Q79G/T225I/M226I): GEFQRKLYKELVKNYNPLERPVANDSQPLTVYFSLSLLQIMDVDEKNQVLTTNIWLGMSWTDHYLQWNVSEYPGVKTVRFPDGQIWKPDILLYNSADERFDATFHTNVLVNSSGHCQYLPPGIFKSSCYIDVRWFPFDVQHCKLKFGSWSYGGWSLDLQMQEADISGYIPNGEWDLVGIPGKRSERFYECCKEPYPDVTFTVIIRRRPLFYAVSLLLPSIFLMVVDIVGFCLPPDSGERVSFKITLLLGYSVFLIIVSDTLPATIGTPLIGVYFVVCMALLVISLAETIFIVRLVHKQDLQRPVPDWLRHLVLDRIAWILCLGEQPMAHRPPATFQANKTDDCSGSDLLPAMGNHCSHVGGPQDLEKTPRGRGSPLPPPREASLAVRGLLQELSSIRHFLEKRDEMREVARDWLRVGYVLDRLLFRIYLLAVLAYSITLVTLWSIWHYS
T13 sequence (P36544 with tags, fused parts or gaps Y115F/L141F): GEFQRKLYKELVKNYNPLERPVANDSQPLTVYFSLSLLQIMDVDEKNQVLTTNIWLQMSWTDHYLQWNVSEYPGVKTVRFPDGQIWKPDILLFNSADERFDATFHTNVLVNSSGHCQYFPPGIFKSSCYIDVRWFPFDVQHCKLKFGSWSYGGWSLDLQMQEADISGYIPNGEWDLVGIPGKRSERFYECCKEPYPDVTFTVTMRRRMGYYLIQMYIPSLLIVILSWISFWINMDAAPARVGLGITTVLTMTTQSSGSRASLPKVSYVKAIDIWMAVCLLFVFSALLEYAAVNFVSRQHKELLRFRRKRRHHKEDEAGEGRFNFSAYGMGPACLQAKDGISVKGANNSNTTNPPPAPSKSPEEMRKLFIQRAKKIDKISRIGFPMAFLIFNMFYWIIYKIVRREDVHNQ
T3 sequence (P36544 with tags, fused parts or gaps T225I/M226I): as the sequence (P36544 with tags, fused parts or gaps Q79G/T225I/M226I) above, with G57Q counted along it
T5 sequence (P36544 with tags, fused parts or gaps Q79G/Q139G/T225I/M226I): as the sequence (P36544 with tags, fused parts or gaps Q79G/T225I/M226I) above, with Q117G counted along it
T1 sequence (P36544 with tags, fused parts or gaps Q79G/L141S/T225I/M226I): as the sequence (P36544 with tags, fused parts or gaps Q79G/T225I/M226I) above, with L119S counted along it
T4 sequence (P36544 with tags, fused parts or gaps Q79G): as the sequence (P36544 with tags, fused parts or gaps Y115F/L141F) above, with Q57G, F93Y, F119L counted along it
T6 sequence (P36544 with tags, fused parts or gaps Q79G/Q139M/T225I/M226I): as the sequence (P36544 with tags, fused parts or gaps Q79G/T225I/M226I) above, with Q117M counted along it
T9 sequence (P36544 with tags, fused parts or gaps L141F/T225I/M226I): as the sequence (P36544 with tags, fused parts or gaps Q79G/T225I/M226I) above, with G57Q, L119F, R403Q, R407D, R411A counted along it
T10 sequence (P36544 with tags, fused parts or gaps L141F): as the sequence (P36544 with tags, fused parts or gaps Y115F/L141F) above, with F93Y counted along it
T14 sequence (P36544 with tags, fused parts or gaps L141F): as the sequence (P36544 with tags, fused parts or gaps Y115F/L141F) above, with F93Y counted along it
T8 sequence (P36544 with tags, fused parts or gaps Y115F/L141F): as the sequence (P36544 with tags, fused parts or gaps Y115F/L141F) above
T11 sequence (P36544 with tags, fused parts or gaps L141F): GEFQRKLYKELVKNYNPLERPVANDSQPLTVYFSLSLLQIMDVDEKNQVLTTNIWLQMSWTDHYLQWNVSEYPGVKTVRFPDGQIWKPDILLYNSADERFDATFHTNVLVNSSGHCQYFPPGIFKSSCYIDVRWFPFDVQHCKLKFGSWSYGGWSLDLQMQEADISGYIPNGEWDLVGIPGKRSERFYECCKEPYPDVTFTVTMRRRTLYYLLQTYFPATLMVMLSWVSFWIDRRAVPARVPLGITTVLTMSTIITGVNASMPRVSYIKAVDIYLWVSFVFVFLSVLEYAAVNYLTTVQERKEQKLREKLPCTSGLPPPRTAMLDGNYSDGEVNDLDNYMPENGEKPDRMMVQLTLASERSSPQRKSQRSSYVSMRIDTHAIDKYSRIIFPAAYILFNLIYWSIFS
T12 sequence (P36544 with tags, fused parts or gaps L141F/T225I/M226I): as the sequence (P36544 with tags, fused parts or gaps Q79G/T225I/M226I) above, with G57Q, L119F, R403Q, R407D, R411A counted along it

SMILES: CCCCc1ccc(C(=O)N[C@@H]2CN3CCC2CC3)cc1 [Compound 9S, (S)-4-butyl-N-(quinuclidin-3-yl)benzamide]
- EC50 (α7-5HT3 Q79G L141S [1]): 4.1 µM
- EC50 (α7-5HT3 Q79G L141S [2]; [14]): 12.3 µM
- shift in the efficacy for α7-5HT3 Q79G L141S (α7-5HT3 Q79G L141S [2]; relative to α7-5HT3 Q79G): only slight shift
- EC50 (α7-5HT3 Q79G L141S [2]; [15]): 4 µM
- EC50 (α7-5HT3 Q79G [3]; [16]): 4.3 µM
- EC50 (α7-5HT3 Q79G [3]; [17]): 2.3 µM
- activity against α7-5HT3 wt (unmodified) receptor [4]: did not induce activate

SMILES: O=C(N[C@@H]1CN2CCC1CC2)c1ccc(C(F)(F)F)cc1 [Compound 22S, (S)—N-(quinuclidin-3-yl)-4-(trifluoromethyl)benzamide]
- selectivity for Q79G relative to other mutant receptors (α7-5HT3 Q79G [5]; FIG. 5 dose response curves): selective
- EC50 (α7-5HT3 Q79G [5]; read-out: EC50-MP, α7 Q79G, IPD 5HT3, value (s.e.m.)): 0.8 µM
- EC50 (α7-GlyR Q79G; [14]): 7.5 µM
- EC50 (α7-GlyR Q79G; [15]): 4.8 µM
- EC50 (α7-5HT3 Q79G Q139G [6]; [16]): 11.6 ± 3.6 µM
- EC50 (α7-5HT3 Q79G Q139G [6]; [17]): 2.7 ± 1 µM
- fold improvement in potency (EC50), α7-5HT3 Q79G Q139M relative to α7-5HT3 Q79G (α7-5HT3 Q79G Q139M; EC50MP): 20 fold
- EC50 (α7-5HT3 Q79G Q139M; α7 Q79G Q139M, IPD 5HT3, value (s.e.m.), read-out: EC50-MP): 0.06 ± 0.04 µM
- EC50 (α7-5HT3 Q79G Q139G [7]): 3.9 µM
- EC50 (α7-5HT3 Q79G [3]; [16]): 2.7 µM
- EC50 (α7-5HT3 Q79G [3]; [17]): 0.4 µM
- activity against α7-5HT3 wt (unmodified) receptor [4]: did not induce activate

SMILES: COc1ccc(OC)c(C(=O)N[C@@H]2CN3CCC2CC3)c1 [Compound 89S, (S)-2,5-dimethoxy-N-(quinuclidin-3-yl)benzamide]
- selectivity for L141F relative to other mutant receptors (α7-5HT3 L141F [8]; FIG. 5 dose response curves): selective
- EC50 (α7-5HT3 L141F [8]; read-out: EC50-MP, α7 L141F, IPD 5HT3, value (s.e.m.)): 0.4 ± 0.1 µM
- EC50 (α7-GlyR L141F Y115F; EC50-Ipeak, peak current): 6.9 µM
- EC50 (α7-GlyR L141F Y115F; EC50-Iss, steady state current): 5.2 µM
- EC50 ([9]; read-out: EC50-Ipeak, peak current, IPD 5HT3 HC): 2.3 µM
- EC50 ([9]; read-out: EC50-Iss, steady state current, IPD 5HT3 HC): 1.5 µM
- excitability (silencing) of transduced neurons [10]: rendered sensitive to silencing; also recorded: poorly excitable
- excitability of non-transduced neurons (non-transduced neurons): unaffected; also recorded: not affected
- EC50 (α7-GABA C L141F; EC50-Ipeak, peak current): 8.8 µM
- EC50 (α7-GABA C L141F; EC50-Iss, steady state current): 4.9 µM
- firing rate of neurons [11]: sustainably increased
- EC50 (α7-5HT3 L141F [12]; read-out: EC50-Ipeak, peak current, IPD 5HT3): 3.2 µM
- EC50 (α7-5HT3 L141F [12]; read-out: EC50-Iss, steady state current, IPD 5HT3): 0.7 µM
- increase of rheobase ([13]; 10 μM): 10 fold
- reversibility of the effect on neuronal excitability after washout ([13]; washed away with drug-free buffer): rapidly reversible; also recorded: reversed
- change in rheobase in untransfected neurons (untransfected neurons): no change
- activity against α7-5HT3 wt (unmodified) receptor [4]: no activity
- EC50 (α7-GlyR L141F; EC50-Iss, steady state current): 1.8 µM
- EC50-Ipeak (α7-GlyR L141F; peak current, *complex: multiphasic dose response): *complex
